Source: patent publication US8193213B2, “Spermicidal and/or antifungal composition and methods of using the same” (priority 2003, dated 2012)
Marks after values point to notes of the source that are not given here.

Experiments:
adult male Swiss mice = assay: Antispermatogenic screen: single gavage dose to male mice, testes weight and Spermatogenic Index at 72 h; type: in vivo; conditions: day 3 (72 h)
Description: The compounds of the invention were tested in mice for their effects on spermatogenesis three days after a single oral dose by the procedure described in Cook et al (1995) below. Compounds active in this test have been shown also to be anti-fertility compounds.
Compounds were screened for antispermatogenic activity by dosing male mice on day 1 with a gavage dose of control vehicle, positive control (compound 1) or compound of the invention. At 72 h after dosing, animals were killed and the testes were excised, trimmed of fat, and weighed. One testis was examined histologically and rated for spermatogenic potential using the Spermatogenic Index (J. M. Whitsett, P. F. Noden, J. Cherry and A. D. Lawton, J. Reprod. Fertil., 72, 277 (1984), which is a semiquantitative estimate of the sperm producing ability of the testes The index is based on histological appearance of the spermatogenic cells in the seminiferous tubules. A scale of 1 to 6 is used with 5 to 6 being the normal status. A second assessment was based on the weight of the testes.
Tables 1 and 2 show pertinent biological results in terms of the change in testes weight (TW) and spermatogenic index (SI) relative to a control containing only the administration vehicle, but no indenopyridine. In Tables 1 and 2, R^3 and R^4 refer to structures Ib, where R^3 is in the para position; R^1 is ethyl; R^2 is methyl; and R^5 is hydrogen.

Candida albicans = assay: Antifungal susceptibility testing (NCCLS, MIC/MFC) against C. albicans; type: cell-based; design: Lowest [Active]: unit not given here; conditions: C. albicans (19 hours); for CFU for MFC at 300: concentration 300; for Lowest [Active]: concentrations 300, 200, 100, unit not given, N/A = no active concentration
Description: (§1) Antifungal susceptibility testing was performed following the NCCLS guidelines with minor modifications. Briefly, a suspension of Candida albicans cells was prepared from pure cultures grown overnight on yeast-malt extract (YM) agar at 35° C. Several small colonies were removed from a YM agar plate and transferred to 5 ml of 0.85% saline. The cells were suspended by 15 seconds of vortexing and the cell density of the resulting suspension was determined using a spectrophotometer. The cell density was adjusted by addition of 0.85% saline until the transmittance matched that of a 0.5 McFarland standard when measured at a wavelength of 530 nm. An aliquot of this suspension was diluted 1:1000 in RPMI-MOPS to yield a working suspension. A similar suspension of Aspergillus fumigatus spores was obtained by using spores stored at […] in 0.85% saline. These spores were diluted in 0.85% saline to match the McFarland standard transmittance. This suspension was then further diluted 1:50 in RPMI-MOPS to produce the working inoculum suspension.
(§2) Dilution series of the test compounds were made in RPMI-MOPS containing 2% DMSO. An aliquot of each dilution was added in duplicate to the wells of a sterile 96-well, flat bottom microtiter plate. Then, an aliquot of either the C. albicans cell suspension or the A. fumigatus spore suspension were added to each well for a final volume of 200 μl. The plates were then incubated at […]. […] A similar determination was made for the A. fumigatus plates after 48 hours. […] The numbers of colony forming units (CFU) were counted and these values used to calculate the percent survival of cells or spores in inocula relative to the number of CFUs in the working inoculum suspension. The minimum fungicidal concentration (MFC) was the lowest concentration of test compound with a percent survival of less than 2%.

Aspergillus fumigatus = assay: Antifungal susceptibility testing (NCCLS, MIC/MFC) against A. fumigatus; type: cell-based; design: Lowest [Active]: unit not given here; conditions: A. fumigatus (48 hours); for CFU for MFC at 200: concentration 200; for CFU for MFC at 300: concentration 300; for Lowest [Active]: concentrations 300, 200, 100, unit not given, N/A = no active concentration
Description: as §1, §2

[1] = racemic compounds, 1 mg/kg single gavage dose, vehicle 90% water, 7% Tween20, 3% ethanol
[2] = racemic compounds, 3 mg/kg single gavage dose, vehicle 90% water, 7% Tween20, 3% ethanol
[3] = racemic compounds, 10 mg/kg single gavage dose, vehicle 90% water, 7% Tween20, 3% ethanol
[4] = Table 2, 1 mg/kg single gavage dose, vehicle 1% Tween20 in water
[5] = Table 2, 3 mg/kg single gavage dose, vehicle 1% Tween20 in water
[6] = Table 2, 10 mg/kg single gavage dose, vehicle 1% Tween20 in water
[7] = Table 2, 30 mg/kg single gavage dose, vehicle 1% Tween20 in water
[8] = Table 2, 0.3 mg/kg single gavage dose, vehicle 1% Tween20 in water

## CCN1CC[C@@H]2[C@@H](c3ccc(C(=O)O)cc3)c3cc(C)c(I)cc3[C@@H]2C1.Cl (racemic) [Compound 17, (4aRS,5SR,9bRS)-2-Ethyl-2,3,4,4a,5,9b-hexahydro-8-iodo-7-methyl-5-(4-carboxyphenyl)-1H-indeno[1,2-c]pyridine Hydrochloride]
Adult male Swiss mice; [1]
  SI change (%) (Spermatogenic Index, % change from vehicle control): −67%*
  TW change (%) (testes weight, % change from vehicle control): −18%
Adult male Swiss mice; [2]
  SI change (%) (Spermatogenic Index, % change from vehicle control): −66%*
  TW change (%) (testes weight, % change from vehicle control): −9%
Adult male Swiss mice; [3]
  SI change (%) (Spermatogenic Index, % change from vehicle control): −76%*
  TW change (%) (testes weight, % change from vehicle control): −32%*

## CCN1CC[C@@H]2[C@@H](c3ccc(C(=O)O)cc3)c3cc(C)c(Cl)cc3[C@@H]2C1.Cl (racemic) [Compound 20, (4aRS,5SR,9bRS)-2-Ethyl-8-Chloro-7-Methyl-2,3,4,4a,5,9b-Hexahydro-5-(4-carboxylphenyl)-1H-Indeno[1,2-c]pyridine Hydrochloride]
Adult male Swiss mice; [1]
  SI change (%) (Spermatogenic Index, % change from vehicle control): −55%*
  TW change (%) (testes weight, % change from vehicle control): −16%
Adult male Swiss mice; [2]
  SI change (%) (Spermatogenic Index, % change from vehicle control): −66%*
  TW change (%) (testes weight, % change from vehicle control): −23%
Adult male Swiss mice; [3]
  SI change (%) (Spermatogenic Index, % change from vehicle control): −72%*
  TW change (%) (testes weight, % change from vehicle control): −22%

## CCN1CCC2C(C1)c1ccc(C)cc1C2c1ccc(OC)cc1.Cl (racemic) [Compound 4587-029]
Candida albicans; concentration 200
  CFU for MFC at 200: Static (Static = well looked clear, but <98% killed)
Candida albicans
  CFU for MFC at 300: Cidal (Cidal = >98% killed)
  Lowest [Active]: 200
Aspergillus fumigatus; concentration 100
  CFU for MFC at 100: Cidal (Cidal = >98% killed)
Aspergillus fumigatus
  CFU for MFC at 200: Cidal (Cidal = >98% killed)
  CFU for MFC at 300: Cidal (Cidal = >98% killed)
  Lowest [Active]: 100

## CCN1CCC2C(C1)c1ccccc1C2c1ccccc1.Cl (racemic) [Compound 4587-037]
Candida albicans
  CFU for MFC at 300: Cidal (Cidal = >98% killed)
  Lowest [Active]: 300
Aspergillus fumigatus
  CFU for MFC at 200: Cidal (Cidal = >98% killed)
  CFU for MFC at 300: Static* (Static = well looked clear, but <98% killed)
  Lowest [Active]: 200

## CCN1CCC2C(C1)c1ccc(C)cc1C2c1ccc(CO)cc1.Cl (racemic) [Compound 4587-055]
Candida albicans
  CFU for MFC at 300: Static (Static = well looked clear, but <98% killed)
  Lowest [Active]: 300

## CCN1CCC2C(C1)c1ccc(C)cc1C2c1ccc(C#N)cc1.Cl (racemic) [Compound 4587-060]
Aspergillus fumigatus
  CFU for MFC at 200: Cidal (Cidal = >98% killed)
  Lowest [Active]: 200

## CCN1CC[C@@H]2[C@@H](c3ccc(C(=O)OC)cc3)c3cc(C)ccc3[C@@H]2C1.Cl (single isomer, unassigned) [3 (l), (1)-Enantiomer of (4aRS,5SR,9bRS)-2-Ethyl-2,3,4,4a,5,9b-hexahydro-7-methyl-5-(4-carbomethoxyphenyl)-1H-indeno[1,2-c]pyridine Hydrochloride]
Adult male Swiss mice; [4]
  SI change (%) (Spermatogenic Index, % change from vehicle control): 3%
  TW change (%) (testes weight, % change from vehicle control): 8%
Adult male Swiss mice; [5]
  SI change (%) (Spermatogenic Index, % change from vehicle control): −2%
  TW change (%) (testes weight, % change from vehicle control): −12%
Adult male Swiss mice; [6]
  SI change (%) (Spermatogenic Index, % change from vehicle control): −33%*
  TW change (%) (testes weight, % change from vehicle control): −13%
Adult male Swiss mice; [7]
  SI change (%) (Spermatogenic Index, % change from vehicle control): −64%*
  TW change (%) (testes weight, % change from vehicle control): −30%*

## CCN1CCC2C(C1)c1cc(I)c(C)cc1C2c1ccc(C(=O)OC)cc1 (single isomer, unassigned) [18 (l)]
Adult male Swiss mice; [8]
  SI change (%) (Spermatogenic Index, % change from vehicle control): −34%*
  TW change (%) (testes weight, % change from vehicle control): −11%*
Adult male Swiss mice; [4]
  SI change (%) (Spermatogenic Index, % change from vehicle control): −66%*
  TW change (%) (testes weight, % change from vehicle control): −21%*
Adult male Swiss mice; [5]
  SI change (%) (Spermatogenic Index, % change from vehicle control): −71%*
  TW change (%) (testes weight, % change from vehicle control): −27%*
Adult male Swiss mice; [6]
  SI change (%) (Spermatogenic Index, % change from vehicle control): −72%*
  TW change (%) (testes weight, % change from vehicle control): −31%*

## CCN1CCC(C(c2ccc(C)cc2)c2cccc(C)c2)CC1.Cl (stereo not shown) [Compound 4587-006]
Candida albicans
  CFU for MFC at 300: Static (Static = well looked clear, but <98% killed)
  Lowest [Active]: 300
